Results published in ChEMBL document CHEMBL1201862, “PubChem BioAssay data set” (2004).
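Dose response: 5 concentrations. Exposure: 48 h. Format: 96-well plates. Endpoint: linear interpolation; highest concentration if not reached. Here, GI50 denotes the concentration required for 50% inhibition of growth.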 Active and inactive are the calls of the source. No stated cut-off is given here; in the data, active = GI50 up to about 1.1 µM and inactive = higher.

What was measured:
Experiment in all cases: growth of human tumour cells (NCI), 48 h
[1] = tested on: SK-OV-3
[2] = tested on: 786-0
[3] = tested on: M14
[4] = tested on: U-251
[5] = tested on: SK-MEL-2
[6] = tested on: A549
[7] = tested on: NCI-H522
[8] = tested on: TK-10
[9] = tested on: UO-31
[10] = tested on: MDA-MB-435
[11] = tested on: OVCAR-5
[12] = tested on: HCT-116
[13] = tested on: T47D
[14] = tested on: BT-549
[15] = tested on: HT-29
[16] = tested on: SF-268
[17] = tested on: SNB-19
[18] = tested on: OVCAR-3
[19] = tested on: HOP-62
[20] = tested on: MOLT-4
[21] = tested on: UACC-257
[22] = tested on: DU-145
[23] = tested on: NCI-H23
[24] = tested on: MDA-N
[25] = tested on: HCT-15
[26] = tested on: HL-60
[27] = tested on: SK-MEL-5
[28] = tested on: COLO 205
[29] = tested on: MCF7
[30] = tested on: OVCAR-4
[31] = tested on: HOP-92
[32] = tested on: CAKI-1
[33] = tested on: NCI/ADR-RES
[34] = tested on: KM12
[35] = tested on: MDA-MB-231
[36] = tested on: UACC-62
[37] = tested on: SF-539
[38] = tested on: EKVX
[39] = tested on: SW-620
[40] = tested on: Hs-578T
[41] = tested on: SF-295
[42] = tested on: PC-3
[43] = tested on: SN12C
[44] = tested on: LOX IMVI
[45] = tested on: A498
[46] = tested on: ACHN
[47] = tested on: IGROV-1
[48] = tested on: NCI-H226
[49] = tested on: SK-MEL-28
[50] = tested on: SNB-75
[51] = tested on: OVCAR-8
[52] = tested on: NCI-H460
[53] = tested on: Malme-3M
[54] = tested on: RXF 393
[55] = tested on: RPMI-8226
[56] = tested on: SR
[57] = tested on: HCC 2998
[58] = tested on: K562
[59] = tested on: CCRF-CEM

## N=C(N)N/N=C/c1c(-c2ccc(Cl)cc2)nc2sc(Cl)cn12
[1]
  GI50: 1.93 µM (inactive)
[2]
  GI50: 1.58 µM (inactive)
[3]
  GI50: 1.9 µM (inactive)
[4]
  GI50: 0.658 µM (active)
[5]
  GI50: 1.71 µM (inactive)
[6]
  GI50: 1.7 µM (inactive)
[7]
  GI50: 2.04 µM (inactive)
[8]
  GI50: 1.72 µM (inactive)
[9]
  GI50: 1.68 µM (inactive)
[10]
  GI50: 1.3 µM (inactive)
[11]
  GI50: 1.67 µM (inactive)
[12]
  GI50: 0.43 µM (active)
[13]
  GI50: 1.12 µM (inactive)
[14]
  GI50: 1.27 µM (inactive)
[15]
  GI50: 0.646 µM (active)
[16]
  GI50: 1.7 µM (inactive)
[17]
  GI50: 1.86 µM (inactive)
[18]
  GI50: 1.55 µM (inactive)
[19]
  GI50: 1.85 µM (inactive)
[20]
  GI50: 0.504 µM (active)
[21]
  GI50: 1.8 µM (inactive)
[22]
  GI50: 1.95 µM (inactive)
[23]
  GI50: 1.08 µM (active)
[24]
  GI50: 1.72 µM (inactive)
[25]
  GI50: 1.36 µM
[26]
  GI50: 0.201 µM (active)
[27]
  GI50: 1.62 µM (inactive)
[28]
  GI50: 0.923 µM (active)
[29]
  GI50: 1.53 µM (inactive)
[30]
  GI50: 1.02 µM (active)
[31]
  GI50: 1.69 µM (inactive)
[32]
  GI50: 1.5 µM (inactive)
[33]
  GI50: 1.79 µM (inactive)
[34]
  GI50: 1.03 µM (active)
[35]
  GI50: 1.82 µM (inactive)
[36]
  GI50: 1.78 µM (inactive)
[37]
  GI50: 1.27 µM (inactive)
[38]
  GI50: 1.85 µM (inactive)
[39]
  GI50: 1.09 µM (active)
[40]
  GI50: 1.85 µM (inactive)
[41]
  GI50: 1.79 µM (inactive)
[42]
  GI50: 3 µM (inactive)
[43]
  GI50: 1.77 µM (inactive)
[44]
  GI50: 0.169 µM (active)
[45]
  GI50: 1.74 µM (inactive)
[46]
  GI50: 3.85 µM (inactive)
[47]
  GI50: 0.755 µM (active)
[48]
  GI50: 1.94 µM (inactive)
[49]
  GI50: 1.81 µM (inactive)
[50]
  GI50: 1.41 µM (inactive)
[51]
  GI50: 1.27 µM (inactive)
[52]
  GI50: 1.69 µM (inactive)

## CC(C)(C)C(=O)OCOP(=O)(OCOC(=O)C(C)(C)C)OCC1OC(n2ccc(=O)[nH]c2=O)C(N=[N+]=[N-])C1O (stereo not given)
[2]
  GI50: 2.46 µM (inactive)
[3]
  GI50: 3 µM (inactive)
[4]
  GI50: 2.59 µM (inactive)
[53]
  GI50: 0.261 µM (active)
[6]
  GI50: 2.99 µM (inactive)
[7]
  GI50: 4.92 µM (inactive)
[8]
  GI50: 10.5 µM (inactive)
[9]
  GI50: 1.62 µM (inactive)
[10]
  GI50: 3.71 µM (inactive)
[11]
  GI50: 5.28 µM (inactive)
[12]
  GI50: 3.22 µM (inactive)
[13]
  GI50: 1.48 µM (inactive)
[14]
  GI50: 3.91 µM (inactive)
[15]
  GI50: 3.44 µM (inactive)
[16]
  GI50: 0.757 µM (active)
[17]
  GI50: 12.9 µM (inactive)
[18]
  GI50: 0.4 µM (active)
[19]
  GI50: 2.37 µM (inactive)
[20]
  GI50: 4.01 µM (inactive)
[21]
  GI50: 5.37 µM (inactive)
[22]
  GI50: 4.94 µM (inactive)
[23]
  GI50: 4.45 µM (inactive)
[24]
  GI50: 3.11 µM (inactive)
[54]
  GI50: 2.3 µM (inactive)
[25]
  GI50: 3.07 µM
[26]
  GI50: 2.14 µM (inactive)
[27]
  GI50: 4.9 µM (inactive)
[28]
  GI50: 3.14 µM (inactive)
[29]
  GI50: 3.81 µM (inactive)
[30]
  GI50: 3.13 µM (inactive)
[31]
  GI50: 1.82 µM (inactive)
[55]
  GI50: 1.62 µM (inactive)
[32]
  GI50: 10.4 µM (inactive)
[33]
  GI50: 7.74 µM (inactive)
[34]
  GI50: 3.11 µM (inactive)
[56]
  GI50: 2.2 µM (inactive)
[57]
  GI50: 2.75 µM (inactive)
[35]
  GI50: 8.79 µM (inactive)
[36]
  GI50: 2.88 µM (inactive)
[37]
  GI50: 2.43 µM (inactive)
[38]
  GI50: 7.59 µM (inactive)
[39]
  GI50: 5.79 µM (inactive)
[40]
  GI50: 0.804 µM (active)
[41]
  GI50: 12.7 µM (inactive)
[42]
  GI50: 3.81 µM (inactive)
[43]
  GI50: 10.3 µM (inactive)
[44]
  GI50: 1.59 µM (inactive)
[46]
  GI50: 4.2 µM (inactive)
[47]
  GI50: 4.23 µM (inactive)
[48]
  GI50: 9.29 µM (inactive)
[49]
  GI50: 11.6 µM (inactive)
[50]
  GI50: 1.42 µM (inactive)
[58]
  GI50: 19.1 µM (inactive)
[51]
  GI50: 3.06 µM (inactive)
[52]
  GI50: 3.08 µM (inactive)
[59]
  GI50: 2.53 µM (inactive)

## O=C(Nc1cccc(C(=O)NCCCO)c1)/C(=C/c1ccccc1)NC(=O)c1ccccc1
[1]
  GI50: > 100 µM (inactive)
[2]
  GI50: > 100 µM (inactive)
[3]
  GI50: > 100 µM (inactive)
[4]
  GI50: > 100 µM (inactive)
[53]
  GI50: > 100 µM (inactive)
[5]
  GI50: > 100 µM (inactive)
[6]
  GI50: > 100 µM (inactive)
[7]
  GI50: > 100 µM (inactive)
[8]
  GI50: > 100 µM (inactive)
[9]
  GI50: > 100 µM (inactive)
[10]
  GI50: > 100 µM (inactive)
[11]
  GI50: > 100 µM (inactive)
[12]
  GI50: > 100 µM (inactive)
[13]
  GI50: > 100 µM (inactive)
[14]
  GI50: > 100 µM (inactive)
[15]
  GI50: > 100 µM (inactive)
[16]
  GI50: > 100 µM (inactive)
[17]
  GI50: > 100 µM (inactive)
[18]
  GI50: > 100 µM (inactive)
[19]
  GI50: > 100 µM (inactive)
[20]
  GI50: 84.1 µM (inactive)
[21]
  GI50: > 100 µM (inactive)
[22]
  GI50: > 100 µM (inactive)
[23]
  GI50: > 100 µM (inactive)
[24]
  GI50: > 100 µM (inactive)
[54]
  GI50: > 100 µM (inactive)
[25]
  GI50: > 100 µM
[26]
  GI50: > 100 µM (inactive)
[27]
  GI50: > 100 µM (inactive)
[28]
  GI50: > 100 µM (inactive)
[29]
  GI50: > 100 µM (inactive)
[30]
  GI50: > 100 µM (inactive)
[31]
  GI50: > 100 µM (inactive)
[55]
  GI50: > 100 µM (inactive)
[32]
  GI50: > 100 µM (inactive)
[33]
  GI50: > 100 µM (inactive)
[34]
  GI50: > 100 µM (inactive)
[57]
  GI50: > 100 µM (inactive)
[35]
  GI50: > 100 µM (inactive)
[36]
  GI50: > 100 µM (inactive)
[37]
  GI50: > 100 µM (inactive)
[38]
  GI50: > 100 µM (inactive)
[39]
  GI50: > 100 µM (inactive)
[40]
  GI50: > 100 µM (inactive)
[41]
  GI50: > 100 µM (inactive)
[42]
  GI50: > 100 µM (inactive)
[43]
  GI50: > 100 µM (inactive)
[44]
  GI50: > 100 µM (inactive)
[45]
  GI50: > 100 µM (inactive)
[46]
  GI50: > 100 µM (inactive)
[47]
  GI50: > 100 µM (inactive)
[48]
  GI50: > 100 µM (inactive)
[49]
  GI50: > 100 µM (inactive)
[50]
  GI50: > 100 µM (inactive)
[58]
  GI50: > 100 µM (inactive)
[51]
  GI50: > 100 µM (inactive)
[52]
  GI50: > 100 µM (inactive)
[59]
  GI50: > 100 µM (inactive)

## Cn1ccc(C(=O)NCCCCCNC(=O)c2ccn(C)c(=O)c2O)c(O)c1=O
[2]
  GI50: > 100 µM (inactive)
[4]
  GI50: > 100 µM (inactive)
[53]
  GI50: > 100 µM (inactive)
[5]
  GI50: > 100 µM (inactive)
[6]
  GI50: > 100 µM (inactive)
[7]
  GI50: > 100 µM (inactive)
[8]
  GI50: > 100 µM (inactive)
[9]
  GI50: > 100 µM (inactive)
[10]
  GI50: > 100 µM (inactive)
[12]
  GI50: > 100 µM (inactive)
[13]
  GI50: > 100 µM (inactive)
[14]
  GI50: > 100 µM (inactive)
[15]
  GI50: > 100 µM (inactive)
[16]
  GI50: > 100 µM (inactive)
[17]
  GI50: > 100 µM (inactive)
[21]
  GI50: > 100 µM (inactive)
[22]
  GI50: > 100 µM (inactive)
[23]
  GI50: > 100 µM (inactive)
[24]
  GI50: > 100 µM (inactive)
[25]
  GI50: > 100 µM
[26]
  GI50: > 100 µM (inactive)
[27]
  GI50: > 100 µM (inactive)
[28]
  GI50: > 100 µM (inactive)
[30]
  GI50: > 100 µM (inactive)
[31]
  GI50: > 100 µM (inactive)
[32]
  GI50: > 100 µM (inactive)
[33]
  GI50: > 100 µM (inactive)
[34]
  GI50: > 100 µM (inactive)
[56]
  GI50: > 100 µM (inactive)
[57]
  GI50: > 100 µM (inactive)
[35]
  GI50: > 100 µM (inactive)
[36]
  GI50: > 100 µM (inactive)
[39]
  GI50: > 100 µM (inactive)
[40]
  GI50: > 100 µM (inactive)
[42]
  GI50: > 100 µM (inactive)
[43]
  GI50: > 100 µM (inactive)
[44]
  GI50: > 100 µM (inactive)
[45]
  GI50: > 100 µM (inactive)
[46]
  GI50: > 100 µM (inactive)
[48]
  GI50: > 100 µM (inactive)
[49]
  GI50: > 100 µM (inactive)
[51]
  GI50: > 100 µM (inactive)
[52]
  GI50: > 100 µM (inactive)
[59]
  GI50: > 100 µM (inactive)
